Consider 20 compounds from patent US20210309657A1, “TRICYCLIC COMPOUNDS FOR THE TREATMENT AND PROPHYLAXIS OF BACTERIAL INFECTION” (Hoffmann-La Roche Inc., priority 2018, published 2021).

The subject of one data set is A. baumannii (ATCC17978). Nature of the data set: 50% growth inhibitory concentration (IC50) determination assay, A. baumannii. The data set is classed as cell-based. The settings on record: Acinetobacter baumannii, growth inhibition, Iso-Sensitest broth, OD 600 nm over 16h, <0.098 = the detection limit. The method, then:
(§1) The in vitro antimicrobial activity of the compounds against S. aureus (ATCC29213), K. pneumoniae (ATCC10031), and A. baumannii (ATCC17978), was determined according to the following procedure: The assay used a 10-points Iso-Sensitest broth medium to measure quantitatively the in vitro activity of the compounds against S. aureus ATCC29213, K. pneumoniae ATCC 10031, and A. baumannii ATCC17978. Stock compounds in DMSO were serially two-fold diluted (range from 50 to 0.097 μM final concentration) in 384 wells microtiter plates and inoculated with 49 μL the bacterial suspension in Iso-Sensitest broth medium to have a final cell concentration of ˜5×10^5 CFU/mL in a final volume/well of 50 μL/well. Microtiter plates were incubated at 35±2° C. Bacterial cell growth was determined with the measurement of optical density at λ=600 nm each 20 minutes over a time course of 16h. Growth inhibition was calculated during the logarithmic growth of the bacterial cells with determination of the concentration inhibiting 50% (IC50) of the growth. Compounds of the present invention were tested for their concentration inhibiting 50% (IC50). The data of IC50 over S. aureus (ATCC29213), K. pneumoniae (ATCC10031), and A. baumannii (ATCC17978) are illustrated in Table 4.

The subject of the next data set is S. aureus (ATCC29213). Nature of the data set: 50% growth inhibitory concentration (IC50) determination assay, S. aureus. The data set is classed as cell-based. The conditions noted are these: Staphylococcus aureus, growth inhibition, Iso-Sensitest broth, OD 600 nm over 16h, <0.098 = the detection limit. The protocol: as §1
In data set [1] the test system is K. pneumoniae (ATCC10031). Description: 50% growth inhibitory concentration (IC50) determination assay, K. pneumoniae. The data set is classed as cell-based. The conditions noted are these: Klebsiella pneumoniae, growth inhibition, Iso-Sensitest broth, OD 600 nm over 16h, <0.098 = the detection limit. The protocol: as §1
A short description of data set [2]: Lyophilisation solubility assay (LYSA). The data set is classed as physicochemical. The conditions noted are these: thermodynamic from solid. The protocol:
The solubility of compounds of present invention was assessed by LYSA assay. Samples were prepared in duplicate from 10 mM DMSO stock solutions ([…]) diluted in 30 μL pure DMSO. After evaporation of DMSO with a centrifugal vacuum evaporator, the residue was dissolved in 0.05 M phosphate buffer (150 μL, pH 6.5), which was stirred for one hour and shook for two hours. After one night, the solution was filtered using a microtiter filter plate. Then the filtrate and its 1/10 dilution were analyzed by HPLC-UV. In addition, a four-point calibration curve was prepared from the 10 mM stock solutions and used for the solubility determination of the compounds.

Where [3] appears, read: aqueous buffer, 0.05 M phosphate buffer, pH 6.5, HPLC-UV, <1.0 = the detection limit, read-out: Lysa.

≈ marks a conversion by molar mass, not a printed value. Where two headings read alike, the source gives them in different places. Where only a bound is given, the exact number is not on record here.

`CNc1cc(F)c(F)c2c1[nH]c1ncc(-c3cnc4ccnn4c3)c(N3CC[C@H]4CN(C)C[C@H]43)c12` (relative stereo) [Example 1.50, 4-[Cis-5-methyl-2,3,3a,4,6,6a-hexahydropyrrolo[2,3-c]pyrrol-1-yl]-5,6-difluoro-N-methyl-3-pyrazolo[1,5-a]pyrimidin-6-yl-9H-pyrido[2,3-b]indol-8-amine]: the concentration for half-maximal inhibition (IC50) (commonly the concentration at which inhibition is half-maximal) in the data set with A. baumannii (ATCC17978) was less than 98 nM; in the data set with S. aureus (ATCC29213), 369 nM; in data set [1] it was less than 98 nM.

As for `CCNc1cc(F)cc2c1[nH]c1ncc(-c3cncc(C#N)c3)c(N3CCC4(C[C@H]4N)C3)c12` (stereo in doubt) [Example 1.11, 5-[8-(Ethylamino)-6-fluoro-4-[cis-2-amino-5-azaspiro[2.4]heptan-5-yl]-9H-pyrido[2,3-b]indol-3-yl]pyridine-3-carbonitrile], the 50% inhibitory concentration (IC50) in the data set on A. baumannii (ATCC17978) was less than 98 nM; with S. aureus (ATCC29213) it was 863 nM; in data set [1] it was less than 98 nM.

With `CNc1cc(F)cc2c1[nH]c1ncc(-c3cncc(C#N)c3)c(N3CCC4(C[C@H]4N)C3)c12` (stereo in doubt) [Example 1.16, 5-[6-Fluoro-8-(methylamino)-4-[cis-2-amino-5-azaspiro[2.4]heptan-5-yl]-9H-pyrido[2,3-b]indol-3-yl]pyridine-3-carbonitrile], the IC50 with A. baumannii (ATCC17978) is 104 nM; in the data set with S. aureus (ATCC29213) it was 867 nM; in data set [1], less than 98 nM. Moreover, in data set [2] (setting [3]), the solubility thermodynamic was determined as 32 µg/mL (≈ 74.9 µM).

As for `CNc1cc(F)c(F)c2c1[nH]c1ncc(-c3cncc(C#N)c3)c(N3CCC4(C[C@@H]4N)C3)c12` (stereo in doubt) [Example 1.29, 5-[4-[Trans-2-amino-5-azaspiro[2.4]heptan-5-yl]-5,6-difluoro-8-(methylamino)-9H-pyrido[2,3-b]indol-3-yl]pyridine-3-carbonitrile], the IC50 worked out at 100 nM in the data set on A. baumannii (ATCC17978) and 1240 nM with S. aureus (ATCC29213). Besides, the solubility thermodynamic in data set [2] (setting [3]) turned out to be 16 µg/mL (≈ 35.9 µM).

With `CNc1cc(F)c(F)c2c1[nH]c1ncc(-c3cncc(C#N)c3)c(N3CCC4(C[C@H]4N)C3)c12` (stereo in doubt) [Example 1.30, 5-[4-[Cis-2-amino-5-azaspiro[2.4]heptan-5-yl]-5,6-difluoro-8-(methylamino)-9H-pyrido[2,3-b]indol-3-yl]pyridine-3-carbonitrile], the IC50 in the data set on A. baumannii (ATCC17978) is less than 98 nM; in the data set on S. aureus (ATCC29213) it was 1010 nM.

For the compound `CNc1cc(F)c(F)c2c1[nH]c1ncc(-c3cnc(OC)nc3)c(N3CCC4(C[C@H]4N)C3)c12` (stereo in doubt) [Example 1.34, 4-[Cis-2-amino-5-azaspiro[2.4]heptan-5-yl]-5,6-difluoro-3-(2-methoxypyrimidin-5-yl)-N-methyl-9H-pyrido[2,3-b]indol-8-amine], the IC50 in the data set on A. baumannii (ATCC17978) is 157 nM; with S. aureus (ATCC29213) it was 603 nM; in data set [1], less than 98 nM. In addition, the solubility thermodynamic in data set [2] (setting [3]) is 93 µg/mL (≈ 206 µM).

As for `CNc1cc(F)c(F)c2c1[nH]c1ncc(-c3cnc(OC)nc3)c(N3CCC4(C[C@@H]4N)C3)c12` (stereo in doubt) [Example 1.35, 4-[Trans-2-amino-5-azaspiro[2.4]heptan-5-yl]-5,6-difluoro-3-(2-methoxypyrimidin-5-yl)-N-methyl-9H-pyrido[2,3-b]indol-8-amine], the results for the IC50 (with A. baumannii (ATCC17978); in the data set with S. aureus (ATCC29213); in data set [1]) were less than 98 nM, 184 nM and less than 98 nM, respectively. Besides, in data set [2] (setting [3]), the solubility thermodynamic is 90 µg/mL (≈ 199 µM).

Consider `CCNc1cc(F)c(F)c2c1[nH]c1ncc(-c3cncc(C#N)c3)c(N3CC[C@@H](N)C3)c12` [Example 1.04, 5-[4-[(3R)-3-Aminopyrrolidin-1-yl]-8-(ethylamino)-5,6-difluoro-9H-pyrido[2,3-b]indol-3-yl]pyridine-3-carbonitrile], for which the IC50 with A. baumannii (ATCC17978) is 212 nM; in the data set with S. aureus (ATCC29213), 380 nM; in data set [1] it was less than 98 nM. The solubility thermodynamic in data set [2] (setting [3]) was determined as 145 µg/mL (≈ 335 µM).

As to `CCNc1cc(Cl)cc2c1[nH]c1ncc(-c3cncc(C#N)c3)c(N3CC[C@@H](N)C3)c12` [Example 1.05, 5-[4-[(3R)-3-Aminopyrrolidin-1-yl]-6-chloro-8-(ethylamino)-9H-pyrido[2,3-b]indol-3-yl]pyridine-3-carbonitrile], the concentration for half-maximal inhibition (IC50) with A. baumannii (ATCC17978) is less than 98 nM; with S. aureus (ATCC29213) it was 1790 nM; in data set [1] it was less than 98 nM. In data set [2] (setting [3]), the solubility thermodynamic came out at 28 µg/mL (≈ 64.8 µM).

For the compound `CCNc1cc(F)c(F)c2c1[nH]c1ncc(-c3cncc(C#N)c3)c(N3CCC(CN)C3)c12` (stereo not drawn) [Example 1.07, 5-[4-[3-(Aminomethyl)pyrrolidin-1-yl]-8-(ethylamino)-5,6-difluoro-9H-pyrido[2,3-b]indol-3-yl]pyridine-3-carbonitrile], the half-maximal inhibitory concentration (IC50) with A. baumannii (ATCC17978) is 110 nM; in the data set on S. aureus (ATCC29213), 1090 nM; in data set [1], less than 98 nM. Moreover, the solubility thermodynamic in data set [2] (setting [3]) was 39 µg/mL (≈ 87.2 µM).

For `CCNc1cc(F)cc2c1[nH]c1ncc(-c3cncc(C#N)c3)c(N3CCC(F)(CN)C3)c12` (stereo not drawn) [Example 1.10, 5-[4-[3-(Aminomethyl)-3-fluoro-pyrrolidin-1-yl]-8-(ethylamino)-6-fluoro-9H-pyrido[2,3-b]indol-3-yl]pyridine-3-carbonitrile], the IC50 was less than 98 nM in the data set on A. baumannii (ATCC17978), 312 nM in the data set on S. aureus (ATCC29213) and less than 98 nM in data set [1].

For `CCNc1cc(F)c(C)c2c1[nH]c1ncc(-c3cncc(C#N)c3)c(N3CCC(CN)C3)c12` (stereo not drawn) [Example 1.45, 5-(4-(3-(Aminomethyl)pyrrolidin-1-yl)-8-(ethylamino)-6-fluoro-5-methyl-9H-pyrido[2,3-b]indol-3-yl)nicotinonitrile], the values for the IC50 (in the data set with A. baumannii (ATCC17978); in the data set with S. aureus (ATCC29213); in data set [1]) were 528 nM, 992 nM and 172 nM, respectively.

Regarding `CNc1cc(F)c(F)c2c1[nH]c1ncc(-c3cncc(C#N)c3)c(N3CCC4(CCC4N)C3)c12` (stereo not drawn) [Example 1.49, 5-(4-(1-Amino-6-azaspiro[3.4]octan-6-yl)-5,6-difluoro-8-(methylamino)-9H-pyrido[2,3-b]indol-3-yl)nicotinonitrile], the figures for the IC50 (in the data set with A. baumannii (ATCC17978); in the data set on S. aureus (ATCC29213); in data set [1]) were 143 nM, 1320 nM and less than 98 nM, respectively.

On to `CNc1cc(F)c(F)c2c1[nH]c1ncc(-c3cc[nH]c(=O)c3)c(N(C)C)c12` [Example 1.51, 4-[4-(Dimethylamino)-5,6-difluoro-8-(methylamino)-9H-pyrido[2,3-b]indol-3-yl]-1H-pyridin-2-one], for which the half-maximal inhibitory concentration (IC50) in the data set with A. baumannii (ATCC17978) is less than 98 nM; in the data set with S. aureus (ATCC29213) it was 1040 nM; in data set [1], less than 98 nM.

As to `CCNc1cc(F)cc2c1[nH]c1ncc(-c3cnc(OC)nc3)c(N3CCC[C@@H](CN)C3)c12` [Example 1.52, (S)-4-(3-(Aminomethyl)piperidin-1-yl)-N-ethyl-6-fluoro-3-(2-methoxypyrimidin-5-yl)-9H-pyrido[2,3-b]indol-8-amine], the half-inhibitory concentration (IC50) was less than 98 nM in the data set on A. baumannii (ATCC17978), 993 nM in the data set with S. aureus (ATCC29213) and less than 98 nM in data set [1].

On to `CNc1cc(F)c(F)c2c1[nH]c1ncc(-c3cncc(C#N)c3)c(N3C4CNCC3C4)c12` [Example 1.58, 5-(4-(3,6-Diazabicyclo[3.1.1]heptan-6-yl)-5,6-difluoro-8-(methylamino)-9H-pyrido[2,3-b]indol-3-yl)nicotinonitrile], for which the IC50 came out at 182 nM with A. baumannii (ATCC17978) and 231 nM in the data set on S. aureus (ATCC29213). In addition, the solubility thermodynamic in data set [2] (pH 6.5, aqueous buffer) came out at 320 µg/mL (≈ 742 µM).

`CNc1cc(F)cc2c1[nH]c1ncc(-c3cncc(C#N)c3)c(N3C4CNCC3C4)c12` [Example 1.60, 5-(4-(3,6-Diazabicyclo[3.1.1]heptan-6-yl)-6-fluoro-8-(methylamino)-9H-pyrido[2,3-b]indol-3-yl)nicotinonitrile]: it took 842 nM to reach half-maximal inhibition in the data set on S. aureus (ATCC29213) (IC50). This compound also gave a solubility thermodynamic in data set [2] (pH 6.5, aqueous buffer) of 53 µg/mL (≈ 128 µM).

Take `CNc1cc(F)c(F)c2c1[nH]c1ncc(-c3cnc4ccnn4c3)c(N(C)C)c12` [Example 1.62, 5,6-Difluoro-N4,N4,N8-trimethyl-3-pyrazolo[1,5-a]pyrimidin-6-yl-9H-pyrido[2,3-b]indole-4,8-diamine]: the concentration for half-maximal inhibition (IC50) is less than 98 nM with A. baumannii (ATCC17978), 1380 nM in the data set with S. aureus (ATCC29213) and 238 nM in data set [1].

For the compound `CCNc1cc(F)cc2c1[nH]c1ncc(-c3cnc(C4(C(=O)O)CC4)nc3)c(N(C)C)c12` [Example 2.01, 1-[5-[4-(Dimethylamino)-8-(ethylamino)-6-fluoro-9H-pyrido[2,3-b]indol-3-yl]pyrimidin-2-yl]cyclopropanecarboxylic acid], in data set [2] (setting [3]), the solubility thermodynamic turned out to be 129 µg/mL (≈ 297 µM).

In the case of `CNc1cc(F)cc2c1[nH]c1ncc(-c3cnc(OC)nc3)c(N3CC(CN)C(F)(F)C3)c12` (stereo not drawn) [Example 3.02, 4-[4-(aminomethyl)-3,3-difluoro-pyrrolidin-1-yl]-6-fluoro-3-(2-methoxypyrimidin-5-yl)-N-methyl-9H-pyrido[2,3-b]indol-8-amine], the solubility thermodynamic in data set [2] (setting [3]) was 196 µg/mL (≈ 428 µM).
